Measured values: US3941777A, “Compounds having juvenile hormone activity” (A/S Cheminova, priority 1973, dated 1976)
Values after ≈ are worked out from the molar mass of the structure shown.

How the values were obtained:
[1] = tested on: Tenebrio molitor L.; assay: Tenebrio test: topical application to pupae, inhibition of adult characters; format: in vivo; conditions: topical in acetone to abdomen of 0.5 to 2 hours old pupae; 27°C, 70% RH; ecdysis 5 to 7 days later; perfect adult 0%, perfect second pupa 100%
Description: The biological tests are examplified by tests on Tenebrio molitor L., Galleria mellonella L. and Culex pipiens L. Tenebrio test: The material in question is applied topically to the abdomen of 0.5 to 2 hours old pupae of the said specimen, as a solution in acetone. The pupae are held at 27°C and 70% RH, ecdysis occuring 5 to 7 days later. The degree of inhibition of adult characters is refered to an arbitrary scale, a morphologically perfect adult given the character 0%, a perfect second pupa 100%.

[2] = tested on: Culex pipiens L.; assay: Culex test: mature larvae, loss of 50% of the test animals; format: in vivo; conditions: concentration producing a loss of 50% of the test animals, read-out: Culex test IC-50 eclos.
Description: Culex test: The compounds were tested on mature larvae of Culex pipiens. (IC-50 eclos.) in ppm.

| SMILES | Tenebrio test ID-50 morph. [1] | LC50 [2] [µg/mL] |
| --- | --- | --- |
| CC(C)=CCCC(C)=CCON=Cc1ccccc1 [Compound 1, Benzaldoxime-0-geranyl ether] | 0,05 μg/pupa | < 1 |
| CC(=CCON=Cc1ccccc1)CCC1OC1(C)C (stereo not drawn) [Compound 2, Benzaldoxime-O-epoxygeranyl ether] | > 0,1 μg/pupa | – |
| CCC(C)=CCCC(=CCON=Cc1ccccc1)CC [Compound 4, Benzaldoxime-O-(3-ethyl-7-methyl-2,6-nonadiene-1-yl)-ether] | 0,01 μg/pupa | – |
| CC(C)=CCCC(C)=CCON=Cc1ccc2c(c1)OCO2 [Compound 5, Piperonaloxime-O-geranyl ether] | > 100 μg/pupa | 1 (≈ 3.32 µM) |
| CC(C)=CCCC(C)=CCON=Cc1ccc(C)cc1 [Compound 6, p-Tolualdoxime-O-geranyl ether] | 50 μg/pupa | 10 (≈ 36.8 µM) |
| CC(C)=CCCC(C)=CCON=Cc1cccnc1 [Compound 7, 3-Pyridinealdoxime-O-geranyl ether] | 10 μg/pupa | – |
| CC(C)=CCCC(C)CCON=Cc1ccccc1 (stereo not drawn) [Compound 8, Benzaldoxime-O-citronellyl ether] | > 100 μg/pupa | < 10 |
| CCC(C)=CCON=Cc1ccc2c(c1)OCO2 [Compound 9, Piperonaloxime-O-(3-methyl-2-pentene-1-yl)-ether] | 10 μg/pupa | 0.02 (≈ 0.0809 µM) |
| CCC(C)=CCON=Cc1ccccc1 [Compound 10, Benzaldoxime-O-(3-methyl-2-pentene-1-yl)-ether] | > 100 μg/pupa | 1 (≈ 4.92 µM) |
| CCC(C)=CCCON=Cc1ccc2c(c1)OCO2 [Compound 11, Piperonaloxime-O-(4-methyl-3-hexene-1-yl)-ether] | > 100 μg/pupa | 0.5 (≈ 1.91 µM) |
| CCC(C)=CCCON=Cc1ccccc1 [Compound 12, Benzaldoxime-O-(4-methyl-3-hexene-1-yl)-ether] | > 100 μg/pupa | < 10 |
| CC(C)=CCCC(C)=CCON=CCO [Compound 13, Glycollicaldoxime-O-geranyl ether] | 50 μg/pupa | 10 (≈ 47.3 µM) |
| CCOC(=O)C=NOCC=C(C)CCC=C(C)C [Compound 14, Glyoxylic acid ethylester aldoxime-O-geranyl ether] | 1 μg/pupa | 1 (≈ 3.95 µM) |
| CCOC(=O)C=NOCC=C(C)CCC1OC1(C)C (stereo not drawn) [Compound 15, Glyoxylic acid ethylester aldoxime-O-(epoxygeranyl)-ether] | 1 μg/pupa | 1 (≈ 3.71 µM) |
| CCOC(=O)C=NOCC=C(C)CCCC(C)(C)OCC [Compound 16, Glyoxylic acid ethylester aldoxime-O-(7-ethoxy-geranyl)-ether] | 1 μg/pupa | 1 (≈ 3.34 µM) |
